Where a SMILES comes first, the peptide text is derived from it. The star is where a group is joined. Myristoyl = CCCCCCCCCCCCCC(=O)*
Assays:
[1] = tested on: CD44^hiCD24^lo CSCs in MDA-MB-231 cells; test: FACS analysis of CD44^hiCD24^lo cancer stem cells in MDA-MB-231 cells treated with P1 analogues; type: cell-based, human; settings: 50 μM peptide, 48 hours; for CD44^hiCD24^lo CSCs (%) / COI, Live Single CD44^hiCD24^lo CSCs (Cell Count): n = 1; for Average Inhibition of CSCs (%) / CD44^hiCD24^lo CSCs (%) Repeat 1 / CD44^hiCD24^lo CSCs (%) Repeat 2 / CD44^hiCD24^lo CSCs (%) Repeat 3: n = 3
Method: Analogues of P1 (Table 6) were designed and synthesized in accordance with the procedure of Example 5. The ability of these analogues to inhibit cancer stem cells was determined using FACS analysis on MDA-MB-231 cells, which constitutively contain approximately 90% CD44^hiCD24^lo cancer stem cells, treated with the peptides.
(§1) Non-adherent cells were removed during the washing steps.

MDA-MB-231 cells = type: cell-based, human; settings: 50 μM peptide, 48 hours, n = 1
Source text: as §1
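Throughout, for COI, Live Single Cells (Cell Count): live means Hoechst-negative events among single cells.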

## CCCCCCCCCCCCCC(=O)N[C@@H](C)C(=O)N[C@H](C(=O)N[C@@H](Cc1ccccc1)C(=O)N[C@H](C(=O)N[C@@H](Cc1ccccc1)C(=O)N[C@@H](CCCNC(=N)N)C(=O)N[C@@H](CC(C)C)C(=O)N[C@@H](CCCNC(=N)N)C(=O)N[C@@H](CCCCN)C(=O)NCC(=O)N[C@@H](CCCNC(=N)N)C(=O)N[C@@H](CCSC)C(=O)N[C@@H](CCSC)C(=O)N[C@@H](CC(=O)O)C(=O)N[C@H](C(=O)N[C@@H](CCCCN)C(=O)N[C@@H](CCCCN)C(N)=O)C(C)C)[C@@H](C)CC)[C@@H](C)O [Peptide 2853801, Myristoyl-ATFIFRLRKGRMMDVKK-NH2] (Myristoyl-ATFIFRLRKGRMMDVKK-NH2)
[1]
  Inhibition of CSCs (%) Repeat 1: 93.01%
  Inhibition of CSCs (%) Repeat 2: 94.77%
  Inhibition of CSCs (%) Repeat 3: 94.78%
  CD44^hiCD24^lo CSCs (%): 5.39%
  COI, Live Single CD44^hiCD24^lo CSCs (Cell Count): 102
  Average Inhibition of CSCs (%): 94.19%
  CD44^hiCD24^lo CSCs (%) Repeat 1: 6.27%
  CD44^hiCD24^lo CSCs (%) Repeat 2: 4.69%
  CD44^hiCD24^lo CSCs (%) Repeat 3: 4.68%
MDA-MB-231 cells
  COI (Cell Count): 2375
  COI, Live Single Cells (Cell Count): 1894
  COI, Single (Cell Count): 2024
  Total Cell Count: 8558

## CCCCCCCCCCCCCC(=O)N[C@@H](CC(C)C)C(=O)N[C@H](C(=O)N[C@@H](Cc1ccccc1)C(=O)N[C@H](C(=O)N[C@@H](Cc1ccccc1)C(=O)N[C@@H](CCCNC(=N)N)C(=O)N[C@@H](CC(C)C)C(=O)N[C@@H](CCC(=O)O)C(=O)N[C@@H](CCCCN)C(=O)NCC(=O)N[C@@H](CCCNC(=N)N)C(=O)N[C@@H](CCSC)C(=O)N[C@@H](CCSC)C(=O)N[C@@H](CC(=O)O)C(=O)N[C@H](C(=O)N[C@@H](CCCCN)C(=O)N[C@@H](CCCCN)C(N)=O)C(C)C)[C@@H](C)CC)[C@@H](C)O [Peptide 2853823, Myristoyl-LTFIFRLEKGRMMDVKK-NH2] (Myristoyl-LTFIFRLEKGRMMDVKK-NH2)
[1]
  Inhibition of CSCs (%) Repeat 1: 80.72%
  Inhibition of CSCs (%) Repeat 2: 81.08%
  Inhibition of CSCs (%) Repeat 3: 82.74%
  CD44^hiCD24^lo CSCs (%): 3.62%
  COI, Live Single CD44^hiCD24^lo CSCs (Cell Count): 22
  Average Inhibition of CSCs (%): 81.52%
  CD44^hiCD24^lo CSCs (%) Repeat 1: 17.28%
  CD44^hiCD24^lo CSCs (%) Repeat 2: 16.97%
  CD44^hiCD24^lo CSCs (%) Repeat 3: 15.49%
MDA-MB-231 cells
  COI (Cell Count): 672
  COI, Live Single Cells (Cell Count): 608
  COI, Single (Cell Count): 626
  Total Cell Count: 1209

## CCCCCCCCCCCCCC(=O)N[C@@H](CC(C)C)C(=O)N[C@H](C(=O)N[C@@H](Cc1ccccc1)C(=O)N[C@H](C(=O)N[C@@H](Cc1ccccc1)C(=O)N[C@@H](CCCNC(=N)N)C(=O)N[C@@H](CC(C)C)C(=O)N[C@@H](CCCNC(=N)N)C(=O)N[C@@H](CCCCN)C(=O)NCC(=O)N[C@@H](CCCNC(=N)N)C(=O)N[C@@H](CCSC)C(=O)N[C@@H](CCCCN)C(=O)N[C@@H](CC(=O)O)C(=O)N[C@H](C(=O)N[C@@H](CCCCN)C(=O)N[C@@H](CCCCN)C(N)=O)C(C)C)[C@@H](C)CC)[C@@H](C)O [Peptide 2853835, Myristoyl-LTFIFRLRKGRMKDVKK-NH2] (Myristoyl-LTFIFRLRKGRMKDVKK-NH2)
[1]
  Inhibition of CSCs (%) Repeat 1: 90.70%
  Inhibition of CSCs (%) Repeat 2: 90.45%
  Inhibition of CSCs (%) Repeat 3: 89.87%
  CD44^hiCD24^lo CSCs (%): 2.50%
  COI, Live Single CD44^hiCD24^lo CSCs (Cell Count): 1
  Average Inhibition of CSCs (%): 90.34%
  CD44^hiCD24^lo CSCs (%) Repeat 1: 8.33%
  CD44^hiCD24^lo CSCs (%) Repeat 2: 8.57%
  CD44^hiCD24^lo CSCs (%) Repeat 3: 9.09%
MDA-MB-231 cells
  COI (Cell Count): 1733
  COI, Live Single Cells (Cell Count): 40
  COI, Single (Cell Count): 1292
  Total Cell Count: 8580

## CCCCCCCCCCCCCC(=O)N[C@@H](CC(C)C)C(=O)N[C@H](C(=O)N[C@@H](Cc1ccccc1)C(=O)N[C@H](C(=O)N[C@@H](Cc1ccccc1)C(=O)N[C@@H](CCCNC(=N)N)C(=O)N[C@@H](CC(C)C)C(=O)N[C@@H](CCCNC(=N)N)C(=O)N[C@@H](CCCCN)C(=O)NCC(=O)N[C@@H](CCCNC(=N)N)C(=O)N[C@@H](CCSC)C(=O)N[C@@H](CCSC)C(=O)N[C@@H](CC(=O)O)C(=O)N[C@H](C(=O)N[C@@H](CCCCN)C(=O)N[C@@H](CCCNC(=N)N)C(N)=O)C(C)C)[C@@H](C)CC)[C@@H](C)O [Peptide 2853844, Myristoyl-LTFIFRLRKGRMMDVKR-NH2] (Myristoyl-LTFIFRLRKGRMMDVKR-NH2)
[1]
  Inhibition of CSCs (%) Repeat 1: 80.13%
  Inhibition of CSCs (%) Repeat 2: 89.73%
  Inhibition of CSCs (%) Repeat 3: 78.08%
  CD44^hiCD24^lo CSCs (%): 10.61%
  COI, Live Single CD44^hiCD24^lo CSCs (Cell Count): 7
  Average Inhibition of CSCs (%): 82.65%
  CD44^hiCD24^lo CSCs (%) Repeat 1: 17.81%
  CD44^hiCD24^lo CSCs (%) Repeat 2: 9.21%
  CD44^hiCD24^lo CSCs (%) Repeat 3: 19.67%
MDA-MB-231 cells
  COI (Cell Count): 147
  COI, Live Single Cells (Cell Count): 66
  COI, Single (Cell Count): 101
  Total Cell Count: 2094

## CCCCCCCCCCCCCC(=O)N[C@@H](CC(C)C)C(=O)N[C@H](C(=O)N[C@@H](Cc1ccccc1)C(=O)N[C@H](C(=O)N[C@@H](Cc1c[nH]cn1)C(=O)N[C@@H](CCCNC(=N)N)C(=O)N[C@@H](CC(C)C)C(=O)N[C@@H](CCCNC(=N)N)C(=O)N[C@@H](CCCCN)C(=O)NCC(=O)N[C@@H](CCCNC(=N)N)C(=O)N[C@@H](CCSC)C(=O)N[C@@H](CCSC)C(=O)N[C@@H](CC(=O)O)C(=O)N[C@H](C(=O)N[C@@H](CCCCN)C(=O)N[C@@H](CCCCN)C(N)=O)C(C)C)[C@@H](C)CC)[C@@H](C)O [Peptide 2853815, Myristoyl-LTFIHRLRKGRMMDVKK-NH2] (Myristoyl-LTFIHRLRKGRMMDVKK-NH2)
[1]
  Inhibition of CSCs (%) Repeat 1: 6.67%
  Inhibition of CSCs (%) Repeat 2: 7.21%
  Inhibition of CSCs (%) Repeat 3: 8.72%
  CD44^hiCD24^lo CSCs (%): 71.33%
  COI, Live Single CD44^hiCD24^lo CSCs (Cell Count): 199
  Average Inhibition of CSCs (%): 7.53%
  CD44^hiCD24^lo CSCs (%) Repeat 1: 83.65%
  CD44^hiCD24^lo CSCs (%) Repeat 2: 83.25%
  CD44^hiCD24^lo CSCs (%) Repeat 3: 81.91%
MDA-MB-231 cells
  COI (Cell Count): 320
  COI, Live Single Cells (Cell Count): 279
  COI, Single (Cell Count): 300
  Total Cell Count: 1114

## CCCCCCCCCCCCCC(=O)N[C@@H](CC(C)C)C(=O)N[C@H](C(=O)N[C@@H](Cc1ccccc1)C(=O)N[C@H](C(=O)N[C@@H](Cc1ccccc1)C(=O)N[C@@H](CCCNC(=N)N)C(=O)N[C@@H](CC(C)C)C(=O)N[C@@H](CCCNC(=N)N)C(=O)N[C@@H](CCCCN)C(=O)NCC(=O)N[C@@H](CCCNC(=N)N)C(=O)N[C@@H](CCCCN)C(=O)N[C@@H](CCSC)C(=O)N[C@@H](CC(=O)O)C(=O)N[C@H](C(=O)N[C@@H](CCCCN)C(=O)N[C@@H](CCCCN)C(N)=O)C(C)C)[C@@H](C)CC)[C@@H](C)O [Peptide 2853833, Myristoyl-LTFIFRLRKGRKMDVKK-NH2] (Myristoyl-LTFIFRLRKGRKMDVKK-NH2)
[1]
  Inhibition of CSCs (%) Repeat 1: 70.25%
  Inhibition of CSCs (%) Repeat 2: 75.23%
  Inhibition of CSCs (%) Repeat 3: 85.46%
  CD44^hiCD24^lo CSCs (%): 12.50%
  COI, Live Single CD44^hiCD24^lo CSCs (Cell Count): 9
  Average Inhibition of CSCs (%): 76.98%
  CD44^hiCD24^lo CSCs (%) Repeat 1: 26.67%
  CD44^hiCD24^lo CSCs (%) Repeat 2: 22.22%
  CD44^hiCD24^lo CSCs (%) Repeat 3: 13.04%
MDA-MB-231 cells
  COI (Cell Count): 495
  COI, Live Single Cells (Cell Count): 72
  COI, Single (Cell Count): 363
  Total Cell Count: 4559

## CCCCCCCCCCCCCC(=O)N[C@H](C(=O)N[C@@H](Cc1ccccc1)C(=O)N[C@H](C(=O)N[C@@H](Cc1ccccc1)C(=O)N[C@@H](CCCNC(=N)N)C(=O)N[C@@H](CC(C)C)C(=O)N[C@@H](CCCNC(=N)N)C(=O)N[C@@H](CCCCN)C(=O)NCC(=O)N[C@@H](CCCNC(=N)N)C(=O)N[C@@H](CCSC)C(=O)N[C@@H](CCSC)C(=O)N[C@@H](CC(=O)O)C(=O)N[C@H](C(=O)N[C@@H](C)C(=O)N[C@@H](CCCCN)C(N)=O)C(C)C)[C@@H](C)CC)[C@@H](C)O [Peptide 2815316, Myristoyl-TFIFRLRKGRMMDVAK-NH2] (Myristoyl-TFIFRLRKGRMMDVAK-NH2)
[1]
  Inhibition of CSCs (%) Repeat 1: 40.88%
  Inhibition of CSCs (%) Repeat 2: 45.01%
  Inhibition of CSCs (%) Repeat 3: 45.00%
  CD44^hiCD24^lo CSCs (%): 50.00%
  COI, Live Single CD44^hiCD24^lo CSCs (Cell Count): 2
  Average Inhibition of CSCs (%): 43.63%
  CD44^hiCD24^lo CSCs (%) Repeat 1: 52.99%
  CD44^hiCD24^lo CSCs (%) Repeat 2: 49.33%
  CD44^hiCD24^lo CSCs (%) Repeat 3: 49.35%
MDA-MB-231 cells
  COI (Cell Count): 22
  COI, Live Single Cells (Cell Count): 4
  COI, Single (Cell Count): 20
  Total Cell Count: 10777

Source: patent US20200339691A1, “PROTEINACEOUS MOLECULES AND USES THEREFOR” (priority 2018, published 2020)
